Holding throughout (assay): relative viability (nuclei count vs DMSO), 5 days (fraction); higher = more cells survive
One experiment has as its system IA-LM. The method, boiled down:
(§1)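 Lung cancer cell lines were pin-tool dosed in 1536-well plates on the day after seeding, with either a lone drug or a fixed anchor-drug dose plus five library-drug doses (not always all listed) in √10 steps. Nuclei were counted on 4× images after 5 days. Relative viability is the ratio of treated-well to vehicle-well nuclei counts, with each value a median of duplicate plates.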

The subject of the next experiment is NCI-H1299. The method, boiled down:
as §1

The test system of another experiment is EMC-BAC-2. The gist of the method:
as §1

For the next experiment, the system named is A549. The method, boiled down:
as §1

The next experiment relates to NCI-H1395. The gist of the method:
as §1

For a further experiment, the system named is NCI-H2170. The method, boiled down: as §1
The subject of another experiment is EBC-1. The method, boiled down: as §1
The subject of the next experiment is NCI-H1703. The method, boiled down: as §1
The next experiment has as its system Calu-6. The gist of the method:
as §1

Another experiment deals with NCI-H1623. The gist of the method: as §1
A further experiment concerns NCI-H1563. The gist of the method: as §1

The structures appear in SMILES notation.

For `C=C1C(=O)O[C@@H](CCCCCCCC)[C@@H]1C(=O)O` [C-75] + CC1(C)CCC(c2ccc(Cl)cc2)=C(CN2CCN(c3ccc(C(=O)NS(=O)(=O)c4ccc(N[C@H](CCN5CCOCC5)CSc5ccccc5)c(S(=O)(=O)C(F)(F)F)c4)cc3)CC2)C1 [Navitoclax] (partner 0.5 µM), the relative viability is 0.754 in the experiment with IA-LM (first compound 0.08 µM); 0.834 in the experiment with IA-LM (first compound 0.253 µM); 0.819 in the experiment with IA-LM (first compound 0.8 µM); 0.52 in the experiment with IA-LM (first compound 2.53 µM); 0.512 with IA-LM (first compound 8 µM); 1.07 in the experiment with NCI-H1299 (first compound 0.08 µM). Further, the relative viability with NCI-H1299 (first compound 0.253 µM) was 1.03; with NCI-H1299 (first compound 0.8 µM), 1.05; in the experiment on NCI-H1299 (first compound 2.53 µM), 1.03; in the experiment with NCI-H1299 (first compound 8 µM), 1.12; in the experiment with EMC-BAC-2 (first compound 0.08 µM), 1.13; in the experiment with EMC-BAC-2 (first compound 0.253 µM) it was 1.18. Also, the relative viability with EMC-BAC-2 (first compound 0.8 µM) turned out to be 1.15; in the experiment with EMC-BAC-2 (first compound 2.53 µM), 1.07; in the experiment on EMC-BAC-2 (first compound 8 µM), 1.18; in the experiment on A549 (first compound 0.08 µM), 1.12; in the experiment on A549 (first compound 0.253 µM), 1.29; in the experiment on A549 (first compound 0.8 µM) it was 1.18. Also, the relative viability in the experiment with A549 (first compound 2.53 µM) came out at 0.819; in the experiment on A549 (first compound 8 µM), 1.15; with NCI-H1395 (first compound 0.08 µM), 1.13; in the experiment on NCI-H1395 (first compound 0.253 µM), 1.24; in the experiment with NCI-H1395 (first compound 0.8 µM), 0.989; with NCI-H1395 (first compound 2.53 µM) it was 0.813. The relative viability with NCI-H1395 (first compound 8 µM) was found to be 1.26; with NCI-H2170 (first compound 0.08 µM), 0.71; with NCI-H2170 (first compound 0.253 µM), 0.641; in the experiment on NCI-H2170 (first compound 0.8 µM), 0.556; with NCI-H2170 (first compound 2.53 µM), 0.525; in the experiment with NCI-H2170 (first compound 8 µM), 0.586. Further, the relative viability came to 0.389 in the experiment on EBC-1 (first compound 0.08 µM); 0.508 in the experiment with EBC-1 (first compound 0.253 µM); 0.306 in the experiment on EBC-1 (first compound 0.8 µM); 0.356 in the experiment on EBC-1 (first compound 2.53 µM); 0.219 with EBC-1 (first compound 8 µM); 1.15 with NCI-H1703 (first compound 0.08 µM). Besides, the relative viability in the experiment on NCI-H1703 (first compound 0.253 µM) was 1.12; in the experiment with NCI-H1703 (first compound 0.8 µM), 0.817; with NCI-H1703 (first compound 2.53 µM) it was 1.09; in the experiment with NCI-H1703 (first compound 8 µM), 0.967; in the experiment on Calu-6 (first compound 0.08 µM), 0.819; in the experiment with Calu-6 (first compound 0.253 µM), 0.864. For the same compound, the relative viability came to 0.786 in the experiment on Calu-6 (first compound 0.8 µM), 0.738 with Calu-6 (first compound 2.53 µM) and 0.714 in the experiment on Calu-6 (first compound 8 µM).

As for `C=C1C(=O)O[C@@H](CCCCCCCC)[C@@H]1C(=O)O` [C-75] + CC(=O)Nc1cccc(-n2c(=O)n(C3CC3)c(=O)c3c(Nc4ccc(I)cc4F)n(C)c(=O)c(C)c32)c1 [Trametinib] (partner 0.02 µM), the relative viability with EMC-BAC-2 (first compound 0.08 µM) turned out to be 0.872; with EMC-BAC-2 (first compound 0.253 µM), 0.987; with EMC-BAC-2 (first compound 0.8 µM) it was 0.853; in the experiment with EMC-BAC-2 (first compound 2.53 µM), 0.803; in the experiment with EMC-BAC-2 (first compound 8 µM), 0.89; with NCI-H1395 (first compound 0.08 µM), 0.973. Further, the relative viability turned out to be 1.05 in the experiment on NCI-H1395 (first compound 0.253 µM); 1.03 in the experiment with NCI-H1395 (first compound 2.53 µM); 0.933 with NCI-H1395 (first compound 8 µM); 0.962 in the experiment with NCI-H2170 (first compound 0.08 µM); 0.924 in the experiment on NCI-H2170 (first compound 0.253 µM); 0.941 in the experiment on NCI-H2170 (first compound 0.8 µM). For the same compound, the relative viability with NCI-H2170 (first compound 2.53 µM) is 0.849; with NCI-H2170 (first compound 8 µM), 0.85.

In the case of `C=C1C(=O)O[C@@H](CCCCCCCC)[C@@H]1C(=O)O` [C-75] + CC(=O)c1c(C)c2cnc(Nc3ccc(N4CCNCC4)cn3)nc2n(C2CCCC2)c1=O [Palbociclib] (partner 0.5 µM), the relative viability with EMC-BAC-2 (first compound 0.08 µM) was 0.522; with EMC-BAC-2 (first compound 0.253 µM), 0.505; in the experiment on EMC-BAC-2 (first compound 0.8 µM) it was 0.515; in the experiment on EMC-BAC-2 (first compound 2.53 µM) it was 0.438; in the experiment on EMC-BAC-2 (first compound 8 µM), 0.521; in the experiment on NCI-H1395 (first compound 0.08 µM) it was 0.586. Moreover, the relative viability in the experiment on NCI-H1395 (first compound 0.253 µM) is 0.584; in the experiment with NCI-H1395 (first compound 2.53 µM), 0.588; with NCI-H1395 (first compound 8 µM) it was 0.597; with NCI-H2170 (first compound 0.08 µM), 0.388; with NCI-H2170 (first compound 0.253 µM) it was 0.406; in the experiment with NCI-H2170 (first compound 0.8 µM), 0.377. For the same compound, the figures for the relative viability with NCI-H2170 (first compound 2.53 µM) and in the experiment with NCI-H2170 (first compound 8 µM) were 0.319 and 0.424, respectively.

Consider `C=C1C(=O)O[C@@H](CCCCCCCC)[C@@H]1C(=O)O` [C-75] + Cc1nc(Nc2ncc(C(=O)Nc3c(C)cccc3Cl)s2)cc(N2CCN(CCO)CC2)n1 [Dasatinib] (partner 0.075 µM), for which the relative viability in the experiment with NCI-H1623 (first compound 0.08 µM) was determined as 0.591; in the experiment on NCI-H1623 (first compound 0.253 µM), 0.649; in the experiment on NCI-H1623 (first compound 0.8 µM), 0.516; with NCI-H1623 (first compound 2.53 µM), 0.447; in the experiment on NCI-H1623 (first compound 8 µM), 0.695; in the experiment on EMC-BAC-2 (first compound 0.08 µM) it was 0.37. For the same compound, the relative viability was found to be 0.313 in the experiment with EMC-BAC-2 (first compound 0.253 µM); 0.283 in the experiment with EMC-BAC-2 (first compound 0.8 µM); 0.261 in the experiment on EMC-BAC-2 (first compound 2.53 µM); 0.276 in the experiment with EMC-BAC-2 (first compound 8 µM); 0.387 in the experiment with NCI-H1563 (first compound 0.08 µM); 0.453 in the experiment on NCI-H1563 (first compound 0.253 µM). Also, the relative viability came to 0.444 in the experiment with NCI-H1563 (first compound 0.8 µM); 0.415 in the experiment with NCI-H1563 (first compound 2.53 µM); 0.569 in the experiment with NCI-H1563 (first compound 8 µM); 0.396 in the experiment on NCI-H1395 (first compound 0.08 µM); 0.388 in the experiment on NCI-H1395 (first compound 0.253 µM); 0.42 with NCI-H1395 (first compound 0.8 µM). Further, the relative viability with NCI-H1395 (first compound 2.53 µM) is 0.407; in the experiment with NCI-H1395 (first compound 8 µM) it was 0.477; in the experiment on NCI-H2170 (first compound 0.08 µM), 0.692; in the experiment with NCI-H2170 (first compound 0.253 µM) it was 0.552; with NCI-H2170 (first compound 0.8 µM), 0.552; with NCI-H2170 (first compound 2.53 µM), 0.476. The compound also displayed a relative viability in the experiment with NCI-H2170 (first compound 8 µM) of 0.522.

For `C=C1C(=O)O[C@@H](CCCCCCCC)[C@@H]1C(=O)O` [C-75] + NC(=O)Nc1cc(-c2cccc(F)c2)sc1C(=O)N[C@H]1CCCNC1 [AZD7762] (partner 0.2 µM), the relative viability in the experiment on EMC-BAC-2 (first compound 0.08 µM) was found to be 1.1; in the experiment on EMC-BAC-2 (first compound 0.253 µM), 1.04; in the experiment on EMC-BAC-2 (first compound 0.8 µM) it was 1.06; with EMC-BAC-2 (first compound 2.53 µM) it was 0.887; with EMC-BAC-2 (first compound 8 µM) it was 1.07; in the experiment on NCI-H1395 (first compound 0.08 µM), 0.358. Further, the relative viability was 0.386 with NCI-H1395 (first compound 0.253 µM); 0.4 in the experiment with NCI-H1395 (first compound 2.53 µM); 0.413 with NCI-H1395 (first compound 8 µM); 0.945 in the experiment with NCI-H2170 (first compound 0.08 µM); 1.1 in the experiment with NCI-H2170 (first compound 0.253 µM); 0.858 in the experiment on NCI-H2170 (first compound 0.8 µM). The relative viability was determined as 0.737 in the experiment with NCI-H2170 (first compound 2.53 µM); 0.887 in the experiment with NCI-H2170 (first compound 8 µM); 0.125 with NCI-H1703 (first compound 0.08 µM); 0.126 in the experiment on NCI-H1703 (first compound 0.253 µM); 0.115 in the experiment with NCI-H1703 (first compound 0.8 µM); 0.149 with NCI-H1703 (first compound 8 µM).

Source of the values: the supplement of paper PMC10307832.
